# Test results from PubChem BioAssay (NCI).
# “And” between values parts separate entries of the source, which are not always exact repeats. Equal values may be shown once.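 Exposure lasted 48 hours, with cells grown in 96-well plates and compounds tested at five concentrations. GI50 marks 50% less growth. TGI: concentration producing complete growth inhibition.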
# Experiments:
# Experiment in all cases: growth of human tumour cells (NCI), 48 h
# [1] = test system: A498 renal
# [2] = test system: HCT-15 colon
# [3] = test system: LOX IMVI melanoma
# [4] = test system: UACC-62 melanoma
# [5] = test system: NCI-H460 lung
# [6] = test system: OVCAR-5 ovarian
# [7] = test system: SK-OV-3 ovarian
# [8] = test system: HOP-62 NSCLC
# [9] = test system: IGROV1 ovarian
# [10] = test system: SNB-75 CNS
SMILES,TGI [1] [µM],TGI [2],TGI [3],TGI [4] [µM],TGI [5],TGI [6] [µM],TGI [7],TGI [8],TGI [9],TGI [10],GI50 [1] [µM],GI50 [2] [µM],GI50 [3] [µM],GI50 [4] [µM],GI50 [5] [µM],GI50 [6] [µM],GI50 [7] [µM],GI50 [8] [µM],GI50 [9] [µM],GI50 [10] [µM]
C/C(=N\N=C(N)N)c1sc(-c2nc(C)c(/C(C)=N/N=C(N)N)s2)nc1C,> 100,> 66.9 µM,> 58.3 µM,> 100,> 100 µM,> 100,> 100 µM,> 100 µM,> 100 µM,> 100 µM,–,–,–,–,–,–,–,–,–,–
S=C1OC2C3C4CC5C3C(O1)C1C5C4C21 (stereo not given),> 100,> 100 µM,> 100 µM,> 100,> 100 µM,> 100,> 100 µM,> 100 µM,> 100 µM,> 100 µM,–,–,–,–,–,–,–,–,–,–
NC(=O)c1ccc(-c2c3ccccc3cc3c2ccc2ccccc23)cc1,24,> 100 µM,32.6 µM,40.2,14.9 µM,> 100,24.2 µM,23.2 µM,> 100 µM,9.15 µM,3.71,2.81,4.86,4.32,3.31,14.3,4.02,4.28,7.6,2.19
Cc1ccc(S(=O)(=O)ON=C2CC(c3ccccc3)N(C)C(c3ccccc3)C2)cc1 (stereo not given),70.8,34.7 µM and 44.9 µM,27.5 µM and 26.9 µM,31.1,44.1 µM and 52.7 µM,92.6,44.9 µM and 47.7 µM,68.4 µM and 98.2 µM,62.1 µM and 56.7 µM,79.3 µM and 66.9 µM,–,–,–,–,–,–,–,–,–,–
O=c1c2c(=NCCCN3CCCC3)cc3c(=O)n(CCCN4CCCC4)c(=O)c4c(NCCCN5CCCC5)cc(c(O)n1CCCN1CCCC1)c2c4-3,4.98,> 100 µM,4.19 µM,5.12,4.01 µM,4.74,6.93 µM,4.54 µM,12 µM,4.1 µM,2.13,6.91,1.87,2.34,1.78,1.64,2.4,1.42,3.51,1.64
O=C(O)C(O)C(O)C1[O][Sb][O]C1CO (stereo not given),> 100,> 100 µM,> 100 µM,> 100,> 100 µM,> 100,> 100 µM,> 100 µM,> 100 µM,> 100 µM,> 100,> 100,> 100,> 100,> 100,> 100,> 100,> 100,> 100,> 100
COc1cc([N+](=O)[O-])c2ncccc2c1O,4.25,13.4 µM,33.6 µM,5.1,> 100 µM,> 100,14.4 µM,4.96 µM,25.5 µM,17.2 µM,1.31,2.56,3.88,1.94,2.86,5.09,3.36,2.05,4.51,2.96
